# Measurements published in patent publication US11452686B2, “Cosmetic active substance obtained through bioconversion by Lactobacillus arizonensis of its original substrate, method for obtaining same composition comprising same, and uses” (SOCIETE INDUSTRIELLE LIMOUSINE D'APPLICATION BIOLOGIQUE, priority 2019, dated 2022).
# Assays:
# Type in all cases: cell-based
# filaggrin = test: Filaggrin synthesis by immunostaining on normal human keratinocytes subjected to a dry environment
# Protocol: Thus, the use of an active substance according to the invention makes it possible to restore the epidermal differentiation process in order to obtain a cohesive structure. The second study on the keratinocytes makes it possible to compare the effect of the products of the various examples 1 to 5. To do this, their capacity to restore the synthesis of filaggrin by human keratinocytes subjected to a dry environment is compared. This study was carried out by immunocytology on normal human keratinocytes subjected to a dry environment. The procedure is as follows:
# Normal human keratinocytes are seeded and incubated at 37° C. in an atmosphere containing 5% CO2 for several days.
# Then, the keratinocytes are either incubated at 37° C. under 5% CO2 in an environment of 40% relative humidity in order to mimic a dry environment, or they are kept in an environment that is saturated with humidity (82% relative humidity) in the presence or absence of the products of examples 1 to 5 or in the presence of a sodium lactate solution at 45 g/L (pH 5.4).
# After 24 h, immunostaining is performed using an anti-filaggrin primary antibody and a coupled secondary antibody, Alexa Flor® 488.
# The nuclei are stained with a DAPI solution.
# Viewing is performed using an IX 70 microscope (Olympus) coupled to an image analysis system (NIS-Elements software, Nikon).
# The synthesized filaggrin is proportional to the intensity of green fluorescence present on the keratinocytes. A quantitative analysis of the images was performed using Matlab® software. The results are expressed in arbitrary units (AU) in Table 6 (Effect of the various examples on their ability to restore the synthesis of filaggrin in human keratinocytes subjected to water stress).
# Collagen IV = Collagen IV mRNA expression by quantitative PCR on normal human fibroblasts; details: 10 ng/mL (positive control)
# Protocol: (§1) This study was carried out by PCR on normal human fibroblasts.
# (§2) I. Culturing and Treatment of Fibroblasts: • Normal human fibroblasts are inoculated into a culture medium and then incubated at 37° C. in an atmosphere containing 5% CO2. • Then, the fibroblasts are cultured in the presence or absence of the active substance of example 1 at 0.5% and 1% (V/V).
# (§3) TGF-β at 10 ng/mL is used as a positive control. Finally, the fibroblasts are recovered and the total RNAs extracted.
# (§4) The RNAs were reverse-transcribed, and the complementary DNAs obtained were analyzed by the quantitative PCR technique. The mRNAs of the RPS18 protein, internal reference control, were analyzed in parallel with the mRNAs of Coll I, Coll III, Coll IV, Coll VII and HAS-2.
# (§5) The quantification of the incorporation of fluorescence (SYBR Green) is measured continuously using a thermal cycler. The RQ (relative quantification) analysis is performed using software.
# Collagen III = Collagen III mRNA expression by quantitative PCR on normal human fibroblasts; details: 10 ng/mL (positive control)
# Protocol: as §1, §2, §3, §4, §5
# Collagen I = Collagen I mRNA expression by quantitative PCR on normal human fibroblasts; details: 10 ng/mL (positive control)
# Protocol: as §1, §2, §3, §4, §5
# Collagen VII = Collagen VII mRNA expression by quantitative PCR on normal human fibroblasts; details: 10 ng/mL (positive control)
# Protocol: as §1, §2, §3, §4, §5
# [1] = test system: HAS-2 (hyaluronan synthase 2); test: HAS-2 mRNA expression by quantitative PCR on normal human fibroblasts; details: 10 ng/mL (positive control)
# Protocol: as §1, §2, §3, §4, §5
Compound,Restoration of filaggrin synthesis (in words) (filaggrin; human keratinocytes subjected to water stress),"Synthesis of filaggrin (filaggrin; keratinocytes, water stress (40% relative humidity), 24 h, product at 0.5%) [AU]","Ability to restore filaggrin synthesis (filaggrin; keratinocytes, water stress, product at 0.5%) [%]",Collagen IV Efficacy/control (Collagen IV),Collagen IV Expression (Collagen IV) [%],Collagen III Efficacy/control (Collagen III),Collagen III Expression (Collagen III) [%],Collagen I Efficacy/control (Collagen I),Collagen I Expression (Collagen I) [%],Collagen VII Efficacy/control (Collagen VII),Collagen VII Expression (Collagen VII) [%],HAS-2 Expression [1] [%]
CC(O)C(=O)[O-].[Na+] (stereo not drawn) [Sodium lactate],does not restore filaggrin synthesis,909,7,,,,,,,,,
TGF-β,,,,+218%,318,+39%,139,+126%,226,+234%,334,78
